Assay results: publication PMC467105, “A comprehensive investigation of the anion inhibition profile of a β-carbonic anhydrase from Acinetobacter baumannii for crafting innovative antimicrobial treatments” (Journal of Enzyme Inhibition and Medicinal Chemistry, 2024)
Like-named read-outs stand apart in the source and are kept apart here.

Experiments:
[1] = molecular target: β-AbauCA (Acinetobacter baumannii β-CA, CanB) (Acinetobacter baumannii, UniProt A0A7U3Y636); experiment: biochemical; assay type: biochemical
[2] = molecular target: PgiCAβ (Porphyromonas gingivalis β-CA); design: method as in PMID 24146373; details: cited from earlier work
[3] = CO2 hydrase, stopped-flow assay

UniProt A0A7U3Y636, sequence (A0A7U3Y636 1-204): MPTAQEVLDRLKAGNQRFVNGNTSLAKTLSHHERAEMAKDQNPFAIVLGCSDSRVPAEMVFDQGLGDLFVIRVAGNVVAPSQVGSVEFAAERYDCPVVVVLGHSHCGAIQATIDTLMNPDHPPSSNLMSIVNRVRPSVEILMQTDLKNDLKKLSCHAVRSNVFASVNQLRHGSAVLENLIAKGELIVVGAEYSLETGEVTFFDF

| SMILES | affinity / Ki for β-AbauCA (in words) [1] | Ki ([1]; read-out: Ki β-AbauCA) | Ki [2, 3] | Ki [2] | Ki [1] |
| --- | --- | --- | --- | --- | --- |
| NS(N)(=O)=O [Anion H2NSO2NH2, sulfamide] | low millimolar affinity | 2.1 mM | 0.078 mM |  |  |
| NS(=O)(=O)O [Anion H2NSO3H, sulphamic acid] | submillimolar | 0.63 mM | 0.06 mM |  |  |
| OB1OB2OB(O)OB(O1)O2 [B4O7^2-, tetraborate] | low millimolar affinity | 6.9 mM |  |  |  |
| F[B-](F)(F)F [BF4^-, tetrafluoroborate] |  | > 100 mM | > 100 mM |  |  |
| Br [Br^-] |  | > 100 mM | 15.9 mM |  |  |
| O=S(=O)(O)C(F)(F)F [CF3SO3^-, triflate] |  | > 100 mM | 8.5 mM |  |  |
| N#CO [CNO^-, cyanate] | submillimolar | 0.79 mM |  | 0.76 mM |  |
| O=C(O)O [CO3^2-, carbonate] |  | > 100 mM |  | 3.7 mM |  |
| S=C(S)S [CS3^2-, trithiocarbonate] | low millimolar affinity | 3.3 mM | 4.3 mM |  |  |
| [O-][Cl+3]([O-])([O-])O [ClO4^-, perchlorate] |  | > 100 mM |  | > 100 mM |  |
| Cl [Cl^-] |  | > 100 mM | 7.5 mM |  |  |
| CCN(CC)C(=S)S [Et2NCS2^-, diethyldithiocarbamate] | low millimolar affinity |  | 0.23 mM |  | 8.2 mM |
| F [F^-] |  | > 100 mM | 7.8 mM |  |  |
| O=C(O)O [HCO3^-, bicarbonate] |  |  |  | 7.3 mM |  |
| O=S(O)O [HSO3^-, bisulphite] |  | 59.1 mM | > 100 mM |  |  |
| S [HS^-, hydrogensulfide] | submillimolar | 0.4 mM |  | 4.5 mM |  |
| I [I^-] |  | > 100 mM | 21.4 mM |  |  |
| [N-]=[N+]=[N-] [N3^-, azide] |  | > 100 mM |  | > 100 mM |  |

| SMILES | affinity / Ki for β-AbauCA (in words) [1] | Ki ([1]; read-out: Ki β-AbauCA) | Ki [2, 3] | Ki [2] | Ki [1] |
| --- | --- | --- | --- | --- | --- |
| O=S(=O)(O)NS(=O)(=O)O [NH(SO3)2^2-, iminodisulfonate] | submillimolar | 0.93 mM | 2.1 mM |  |  |
| O=NO [NO2^-, nitrite] |  | 31.1 mM |  | 7.8 mM |  |
| O=[N+]([O-])O [NO3^-, nitrate] |  | 47.9 mM | > 100 mM |  |  |
| O=P(O)(O)OP(=O)(O)O [P2O7^4-, pyrophosphate] |  | 33.6 mM | 8.2 mM |  |  |
| F[P-](F)(F)(F)(F)F [PF6^-, hexafluorophosphate] |  |  | 8.2 mM |  |  |
| O=[As](O)(O)c1ccccc1 [Ph-AsO3H2, phenylarsonic acid] |  |  |  | 0.076 mM |  |
| OB(O)c1ccccc1 [Ph-B(OH)2, phenylboronic acid] | submillimolar |  |  | 0.077 mM | 0.29 mM |
| [O]=[Re](=[O])(=[O])[O-] [ReO4^-, perrhenate] | low millimolar affinity | 8.1 mM |  |  |  |
| [O]=[Ru](=[O])(=[O])=[O] [RuO4^-, perrhuthenate] | submillimolar | 0.96 mM |  |  |  |
| O=S(=O)(O)OOS(=O)(=O)O [S2O8^2-, peroxydisulfate] | low millimolar affinity | 3.8 mM | 9.2 mM |  |  |
| N#CS [SCN^-, thiocyanate] | low millimolar affinity |  | 1.9 mM |  |  |
| O=S(=O)(O)O [SO4^2-, sulphate] |  | 79.3 mM |  | > 100 mM |  |
| N#C[SeH] [SeCN^-, selenocyanide] | submillimolar | 0.71 mM |  | 2.4 mM |  |
| O=[Se](=O)(O)O [SeO4^2-, selenate] |  | 18.4 mM |  | 9.2 mM |  |
| [O]=[Sn]([OH])[OH] [SnO3^2-, stannate] | low millimolar affinity | 2.4 mM |  |  |  |
| O=[Te](=O)(O)O [TeO4^2-, tellurate] |  | 6 mM |  |  |  |
| [O]=[V]([OH])([OH])[O][V](=[O])([OH])[OH] [V2O7^4-, divanadate] | low millimolar affinity | 5.8 mM |  |  |  |
